Where a SMILES comes first, the peptide text is derived from it. Where no end group is shown, it is not given here. [ ]: non-standard residue; d: D form. 3'AdT = not defined here
Tests used:
[1] = stability in fetal calf serum (estimation of in vivo stability); assay type: in vitro ADME; settings: 37° C.; for degradation in fetal calf serum: 6 hr
Method: The stability of peptides of the invention was estimated by mixing the peptides with fetal calf serum and incubating at 37° C. for 6 hr. Samples were tested at both 0 and 6 hours.

MDCK cells = test: viability of MDCK cell cultures by trypan blue exclusion; assay type: cell-based; settings: 96 hour incubation, 0.5 μM to 10 μM, FIG. 9
Method: The activity of peptides of the invention as targeting moieties was tested in vitro in preliminary studies using cells lines expressing C6S. The nucleoside analog 3′ amino deoxythymidine (3′AdT) was conjugated to the amino-terminus of the peptide “RYK” (RYKvFIKYRh (SEQ ID NO:8)) using a single D-Glu residue (3′AdT-e-RYK).
Confluent cultures of MDCK were passaged at 1/20 dilution and exponentionally growing cells were incubated for 96 hours with concentrations of the nucleoside analog conjugates ranging from 0.5 μM to 10 μM. Viability was subsequently assessed using trypan blue exclusion.

[2] = test system: heparan sulfate (HS), chondroitin-4-sulfate (C4S), keratin sulfate (KS), HA; test: modified ELISA, binding to C6S compared with other proteoglycans; settings: KS (FIG. 5), HS and HA (FIG. 6B)
Method: (§1) The binding of the nine-mer peptides of the invention to C6S as predicted by the models, in particular, as compared to the binding to other proteoglycans was tested using a modified ELISA protocol. ELISA plates were coated overnight with 1 mg/ml of heparin sulfate (HS), chondroitin-4-sulfate (C4S), chondroitin-6-sulfate (C6S) or keratin sulfate (KS) in PBS. The wells were then washed with PBS and incubated for 1 hour at room temperature with 1 mg/ml of an exemplary peptide of the invention having the sequence RYKvFIKYRh (“RYK-C6S”; SEQ ID NO:7) or a standard TAT peptide. The plates were then thoroughly washed with PBS and subsequently photographed with a LUMASCOPE™ luminescent microscope. Images were then quantified using the ImageJ software (FIG. 5).
(§2) The impact of sequence variation on specific binding was also investigated with select peptides using the above described modified ELISA.

[3] = test system: chondroitin-6-sulfate (C6S); test: modified ELISA, binding of peptides to plate-coated C6S; settings: plates coated with 1 mg/ml C6S; 1 mg/ml peptide, 1 hour, room temperature; FIG. 5, 6A, 6B
Method: as §1
The same modified ELISA protocol was used to examine the impact on the specific binding to C6S by modifying the freely-selectable positions 2, 4, 6, 8 and (5 or 7).
as §2

N=C(N)NCCC[C@H](NC(=O)[C@H](Cc1ccc(O)cc1)NC(=O)[C@H](CCCCN)NC(=O)[C@H](Cc1c[nH]c2ccccc12)NC(=O)[C@H](CO)NC(=O)CNC(=O)[C@H](CCCCN)NC(=O)[C@H](Cc1ccccc1)NC(=O)[C@@H](N)CCCNC(=N)N)C(=O)O [RFKGSWKYR] (H-RFKGSWKYR-OH; N-terminus and C-terminus assumed)
degradation in fetal calf serum [1]: completely degraded

CC[C@H](C)[C@H](NC(=O)[C@H](Cc1ccccc1)NC(=O)[C@H](NC(=O)[C@H](CCCCN)NC(=O)[C@H](Cc1ccc(O)cc1)NC(=O)[C@@H](N)CCCNC(=N)N)C(C)C)C(=O)N[C@@H](CCCCN)C(=O)N[C@@H](Cc1ccc(O)cc1)C(=O)N[C@@H](CCCNC(=N)N)C(=O)N[C@H](Cc1c[nH]cn1)C(=O)O [RYK-C6S, RYKvFIKYRh] (H-RYK[dV]FIKYR[dH]-OH; N-terminus and C-terminus assumed)
degradation in fetal calf serum [1]: no degradation
remaining at 6 h ([1]; fetal calf serum, 6 hours): 100%

D-linked conjugate: 3′AdT conjugated to the amino-terminus of the peptide RYK (RYKvFIKYRh) using a single D-Glu residue ({3'AdT}-[dE]RYK[dV]FIKYR[dH]; reading uncertain; also: printed as RYKvFIKYRh)
concentration with substantial effects on viability (MDCK cells): ≥ 0.5 µM

RGKPRFYQR
selectivity of binding for C6S over other proteoglycans [2]: either eliminated binding activity to any proteoglycan or eliminated the specificity to C6S

RKKRRQRR (Artificial TAT peptide control) [standard TAT peptide]
binding to C6S [3]: increases in binding that were likely non-selective

RRRRRRRRR [pure arginine 9-mer]
binding to C6S [3]: increases in binding that were likely non-selective

RYFvRIKYR (RYF[dV]RIKYR) [control peptide, replacement of Lys3 with a Phe]
binding to C6S [3]: eliminated binding to C6S

RYKvFIKPRh (RYK[dV]FIKPR[dH]) [control peptide with proline at position 8]
binding to C6S [3]: eliminated binding activity

From patent publication US10131690B2, “C6S specific transporter molecules” (PHI PHARMA SA, priority 2014, dated 2018)
